The values that follow come from BindingDB's records for doi:10.1016/s0960-894x(98)00116-4 (University of Waterloo, 1999).

For test [1], the target named is Lactoylglutathione lyase (Saccharomyces cerevisiae). As to the kind of experiment: Compound was evaluated for inhibition of Saccharomyces cerevisiae glyoxalase-I by using enzymatic assay at each of 6 substrate concentrations between 0.1 mM and 2.0 mM.
The target is the same in test [2]. As to the kind of experiment: Compound was evaluated for inhibition of Saccharomyces cerevisiae glyoxalase-I, activity is determined with 0.5 mM substrate.

*1 amine or outer side, *2 acyl side, *3 side chain or, on linkers, in order; H or OH if unused. Where a SMILES comes first, the peptide text is derived from it. The star is where a group is joined. γGlu = O=C(O)[CH](CCC(=O)[*:2])N[*:1]; NHOH = ON*

For the compound `NC(CCC(=O)NC(CCC(=O)NO)C(=O)NCC(=O)O)C(=O)O` (stereo not drawn) [2-Amino-4-[1-(carboxymethyl-carbamoyl)-3-hydroxycarbamoyl-propylcarbamoyl]-butyric acid anion] (γGlu-Glu(NHOH)-Gly-OH; configuration not given here), the Ki in test [1] worked out at 92.9 µM.
Consider `CCOC(=O)CNC(=O)C(CCC(=O)NO)NC(=O)CCC(N)C(=O)O` (stereo not drawn) [2-Amino-4-[1-(ethoxycarbonylmethyl-carbamoyl)-3-hydroxycarbamoyl-propylcarbamoyl]-butyric acid anion] (γGlu-Glu(NHOH)-Gly-OEt; configuration not given here), for which half-maximal inhibition in test [2] (IC50) required 1620 µM.
Regarding `CN(O)C(=O)CCC(NC(=O)CCC(N)C(=O)O)C(=O)NCC(=O)O` (stereo not drawn) [2-Amino-4-[1-(carboxymethyl-carbamoyl)-3-(hydroxy-methyl-carbamoyl)-propylcarbamoyl]-butyric acid anion], the inhibitory constant (Ki) in test [1] is 1.9 µM.

For orientation: Ki means a dissociation constant, usually derived from enzyme kinetics or from competition with a known ligand. A high value points to a looser hold on the target. By IC50 is commonly meant the concentration that gives 50% inhibition. A high value points to a need for much substance.
